Assay results: US12558428B2, “Heterobifunctional compounds and their use in treating disease” (Halda Therapeutics OpCo, Inc., priority 2024, dated 2026)
Like-named read-outs stand apart in the source and are kept apart here.

Experiments:
Type in all cases: cell-based
[1] = tested on: T-Rex 293 cells having increased expression of estrogen receptor alpha protein; test: Cellular growth inhibition assay, T-Rex 293 cells, (+) doxycycline; details: T-REx-293, 72 h, 72 hours
Experimental: (§1) Exemplary compounds were tested for the ability to inhibit the proliferation of the following types of cells: (i) a T-Rex 293 cell line having increased expression of estrogen receptor alpha protein from exposure to doxycycline and (ii) a T-Rex 293 cell line lacking increased expression of estrogen receptor alpha protein.
(§2) The following types of cells were prepared for this experiment: (i) a T-Rex 293 cell line having increased expression of estrogen receptor alpha protein from exposure to doxycycline and (ii) a T-Rex 293 cell line lacking increased expression of estrogen receptor alpha protein. The ability of the test compounds to inhibit proliferation of the foregoing cell types was evaluated according to the procedures set forth below.
(§3) The doxycycline-inducible estrogen receptor alpha protein expressing cell line was established using the following protocol: T-Rex 293 cells were purchased from Invitrogen (Cat #R71007) and transfected using Lipofectamine 2000 with the wild-type estrogen receptor alpha protein sequence cloned into the pcDNA4/TO vector. Transfected cells were selected using 400 μg/mL Zeocin (Invitrogen Cat #R25001). Following selection, single clones were raised and maintained in Dulbecco's Modified Eagle Medium (DMEM) supplemented with 10% w/w Tetracycline-free fetal bovine serum (FBS) and 250 μg/mL Zeocin. Clones were analyzed for expression of estrogen receptor alpha protein in the presence and absence of 3 ng/mL doxycycline (Sigma Cat #D9891), and a single doxycycline-inducible clone (hereinafter “SC”) was selected for use in downstream assays.
(§4) The SC cells were seeded on poly-D-lysine coated, black clear-bottom 384-well plates at 2500/well, in 25 μL Phenol Red Free Dulbecco's Modified Eagle Medium (DMEM) supplemented with 10% w/w charcoal-dextran treated fetal bovine serum (FBS) and 1% w/w pen-strep, with or without 3 ng/mL doxycycline. Pen-Strep is a commercially available mixture of penicillin G and streptomycin, which is used in mammalian cell culture media to prevent bacterial contamination. Phenol Red Free Dulbecco's Modified Eagle Medium (DMEM) supplemented with 10% w/w charcoal-dextran treated fetal bovine serum (FBS) and 1% w/w pen-strep, with or without 3 ng/mL doxycycline is herein referred to as Treatment Medium. Following seeding of cells in the plates, the plates were spun at 300×g for 30 seconds, then equilibrated to room temperature for 30 minutes, and then deposited in a humidified tissue culture incubator maintained at 37° C. with 5% CO2.
(§5) At 24 hours after seeding of the cells, dilutions of test compound were prepared in DMSO and dissolved in Treatment Medium, to achieve a final DMSO concentration of 0.5% w/w, thereby providing the Test Compound Solution. A 25 μL aliquot of the Test Compound Solution was added to cells in the well plates. An equal volume of a solution containing DMSO and Treatment Medium was used as a negative control. Following treatment of cells with Test Compound Solution or said equal volume of a solution containing DMSO and Treatment Medium, the plates were spun at 300×g for 30 seconds, and then left in an incubator for 72 hours.
(§6) At the end of the treatment duration, cell viability was quantified with CellTiter-Glo 2.0 reagent (Promega Cat #G9243). For this purpose, plates were equilibrated to room temperature for 30 minutes, and then 25 μL of CellTiter-Glo 2.0 reagent was added to cells in the plate wells. Plates were then agitated on a shaker for two minutes at 500 rpm and subsequently incubated at room temperature for 10 minutes. Following incubation, the plates were spun at 3000×g for 30 seconds, then sealed with an optical adhesive cover, and luminescence readings were measured with an EnVision Plate Reader (Perkin Elmer).
(§7) Data was normalized using zero luminescence for baseline. […]

[2] = tested on: T-Rex 293 cells lacking increased expression of estrogen receptor alpha protein; test: Cellular growth inhibition assay, T-Rex 293 cells, (−) doxycycline; details: T-REx-293, 72 h, 72 hours
Experimental: as §1, §2, §3, §4, §5, §6, §7

[3] = tested on: MCF7 cells (ATCC #HTB-22); test: Cellular growth inhibition assay, MCF7 cells purchased from ATCC; details: Homo sapiens, MCF7, 144 h, Table 8-A; MCF7 cells purchased from ATCC; six days; CellTiter-Glo; read-out: GI50
Experimental: Exemplary compounds were tested for the ability to inhibit the proliferation of MCF7 cells.
MCF7 cells (ATCC #HTB-22 or ECACC #86012803) were cultured in RPMI 1640 medium supplemented with 10% heat-inactivated fetal bovine serum, 1% pen-strep, and 0.2 U/ml insulin. Cells were seeded in 25 μL of RPMI 1640 medium supplemented with 10% heat-inactivated fetal bovine serum, 1% pen-strep, 0.2 U/ml insulin in poly-D-lysine treated, black clear-bottom 384-well plates at 225 cells/well for MCF7 cells purchased from ECACC or 1,500 cells/well for MCF7 cells purchased from ATCC. Following seeding, plates were spun at 300×g for 30 seconds and cultured at 37° C. with 5% CO2 in a humidified tissue culture incubator.
At 24 hours after seeding, compounds were titrated in 100% DMSO and diluted in RPMI 1640 medium supplemented with 10% heat-inactivate fetal bovine serum, 1% pen-strep, and 0.2 U/ml insulin. A 25 μL aliquot of the compound/media mixture was added to cells, bringing the total volume in each well to 50 μL. An equal volume of DMSO without compound was used as a negative control. After treatment, plates were spun at 300×g for 30 seconds, then cultured at 37° C. with 5% CO2 for six days in a humidified tissue culture incubator.
On Day 6 of treatment, cell viability was quantified with CellTiter-Glo 2.0 reagent (Promega). Plates were equilibrated to room temperature for 30 minutes, then 25 μL of CellTiter-Glo 2.0 reagent was added to cells, bringing the total volume in each well to 75 μL. After reagent was added, plates were mixed on a shaker for two minutes at 500 rpm and then incubated at room temperature for 10 minutes. Following incubation, plates were spun at 3,000×g for 30 seconds, sealed with an optical adhesive cover, and luminescence readings were measured with an EnVision Plate Reader.
Data was normalized to 0 luminescence for baseline. A four-parameter, non-linear regression curve fit was applied to dose-response data in GraphPad Prism data analysis software to determine the half maximal growth inhibitory concentration (GI50) for each compound.

[4] = T-Rex 293 cells with doxycycline-induced ERα expression, CellTiter-Glo 2.0, read-out: (+) Dox TRex ERa (GI50)
[5] = T-Rex 293 cells without doxycycline, CellTiter-Glo 2.0, read-out: (−) Dox TRex ERa (GI50)
[6] = Table 7-A, T-Rex 293 cells with doxycycline (increased ERα expression), CellTiter-Glo, read-out: (+) Dox GI50
[7] = Table 7-A, T-Rex 293 cells without doxycycline (lacking increased ERα expression), CellTiter-Glo, read-out: (−) Dox GI50

| GI50 [3] | Compound | GI50 [1, 4] | GI50 [2, 5] | GI50 [1, 6] | GI50 [2, 7] |
| --- | --- | --- | --- | --- | --- |
| < 50 nM | COc1cc(N2CCN(CC3(O)CCN(c4ccc(C5=N[C@@H](C)c6nnc(C)n6-c6sc(C)c(C)c65)cc4)CC3)CC2)ccc1[C@@H]1c2ccc(O)cc2CC[C@@H]1c1ccc(F)cc1 (single isomer, unassigned) [III-276] | – | – | < 50 nM | 500 to 2500 nM |
| < 50 nM | COc1cc(N2CCN(CC3(O)CCN(c4ccc(C5=N[C@@H](C)c6nnc(C)n6-c6sc(C)c(C)c65)cc4)CC3)CC2)ccc1[C@@H]1c2ccc(O)cc2CC[C@@H]1c1ccccc1F (single isomer, unassigned) [III-307] | – | – | < 50 nM | 500 to 2500 nM |
| 50 to 500 nM | COc1cc(N2CCN(CC3(O)CCN(c4ccc(C5=N[C@@H](C)c6nnc(C)n6-c6sc(C)c(C)c65)cc4)CC3)CC2)ccc1[C@H]1c2ccc(O)cc2CC[C@H]1c1ccccc1F (single isomer, unassigned) [III-308] | – | – | 50 to 500 nM | 50 to 500 nM |
| < 50 nM | COc1cc(N2CCN(CC3(O)CCN(c4ccc(C5=N[C@@H](C)c6nnc(C)n6-c6sc(C)c(C)c65)cc4)CC3)CC2)c(F)cc1[C@@H]1c2ccc(O)cc2CC[C@@H]1c1ccccc1 (single isomer, unassigned) [III-311] | – | – | < 50 nM | 500 to 2500 nM |
| 50 to 500 nM | COc1cc(N2CCN(CC3(O)CCN(c4ccc(C5=N[C@@H](C)c6nnc(C)n6-c6sc(C)c(C)c65)cc4)CC3)CC2)c(F)cc1[C@H]1c2ccc(O)cc2CC[C@H]1c1ccccc1 (single isomer, unassigned) [III-312] | – | – | 50 to 500 nM | 50 to 500 nM |

Second part, the compound before the results:

| Compound | GI50 [3] | GI50 [1, 4] | GI50 [2, 5] | GI50 [1, 6] | GI50 [2, 7] |
| --- | --- | --- | --- | --- | --- |
| Cc1sc2c(c1C)C(c1ccc(OC3CC4(CCN(c5ccc(C(=O)c6c(-c7ccc(O)cc7)sc7cc(O)ccc67)cc5)CC4)C3)cc1)=N[C@@H](Cc1ncco1)c1nnc(C)n1-2 (single isomer, unassigned) [I-26, (6-hydroxy-2-(4-hydroxyphenyl)benzo[b]thiophen-3-yl)(4-(2-(4-(2,3,9-trimethyl-6-(oxazol-2-ylmethyl)-6H-thieno[3,2-f][1,2,4]triazolo[4,3-a][1,4]diazepin-4-yl)phenoxy)-7-azaspiro[3.5]nonan-7-yl)phenyl)methanone] | < 50 nM | < 50 nM | 50 to 500 nM | – | – |
| Cc1sc2c(c1C)C(c1ccc(N3CCN(CC4CCN(c5ccc([C@H]6c7ccc(O)cc7CC[C@H]6c6ccccc6)cc5)CC4)CC3)cc1)=N[C@@H](C)c1nnc(C)n1-2 (single isomer, unassigned) [I-37a] | 50 to 500 nM | – | – | 50 to 500 nM | 500 to 2500 nM |
| Cc1sc2c(c1C)C(c1ccc(N3CCN(CC4CCN(c5ccc([C@@H]6c7ccc(O)cc7CC[C@@H]6c6ccccc6)cc5)CC4)CC3)cc1)=N[C@@H](C)c1nnc(C)n1-2 (single isomer, unassigned) [I-37b] | 500 to 2500 nM | – | – | 500 to 2500 nM | 500 to 2500 nM |
| CC1=C(c2c(F)cc(OCCOCCOc3ccc(C4=N[C@@H](C)c5nnc(C)n5-c5sc(C)c(C)c54)cc3)cc2F)C(c2ccccc2)Oc2ccc(O)cc21 (single isomer, unassigned) [I-39] | 50 to 500 nM | 50 to 500 nM | 500 to 2500 nM | – | – |
| Cc1sc2c(c1C)C(c1ccc(N3CCC(O)(CN4CCC(c5cc(F)c([C@H]6c7ccc(O)cc7CC[C@H]6c6ccc(F)cc6)c(F)c5)CC4)CC3)cc1)=N[C@@H](C)c1nnc(C)n1-2 (single isomer, unassigned) [III-244] | 50 to 500 nM | – | – | > 2500 nM | > 2500 nM |
| Cc1sc2c(c1C)C(c1ccc(N3CCC(O)(CN4CCC(c5cc(F)c([C@@H]6c7ccc(O)cc7CC[C@@H]6c6ccc(F)cc6)c(F)c5)CC4)CC3)cc1)=N[C@@H](C)c1nnc(C)n1-2 (single isomer, unassigned) [III-245] | < 50 nM | – | – | < 50 nM | 500 to 2500 nM |
| COc1cc(N2CCN(CC3(O)CCN(c4ccc(C5=N[C@@H](C)c6nnc(C)n6-c6sc(C)c(C)c65)cc4)CC3)CC2)ccc1[C@H]1c2ccc(O)cc2CC[C@H]1c1ccc(F)cc1 (single isomer, unassigned) [III-275] | 50 to 500 nM | – | – | 50 to 500 nM | 50 to 500 nM |
| CCN(CCOCCOCCOCCOCCOCCOCCCCCCCCc1cc(Cl)cc(NC(=O)NCc2ccc3c(c2)CN(C2CCC(=O)NC2=O)C3=O)c1)CCOc1ccc(C(=O)c2c(-c3ccc(O)cc3)sc3cc(O)ccc23)cc1 (stereo not drawn) [II-1] | < 50 nM | – | – | – | – |
| CCN(CCCCCCCCc1cc(Cl)cc(NC(=O)NCc2ccc3c(c2)CN(C2CCC(=O)NC2=O)C3=O)c1)CCOc1ccc(C(=O)c2c(-c3ccc(O)cc3)sc3cc(O)ccc23)cc1 (stereo not drawn) [II-3] | < 50 nM | – | – | – | – |
| Cc1sc2c(c1C)C(c1ccc(N3CCC(O)(CN4CCC(c5cc(F)c([C@H]6c7ccc(O)cc7CC[C@H]6c6ccc(F)cc6)c(F)c5)CC4)CC3)cc1F)=N[C@@H](C)c1nnc(C)n1-2 [III-337, 4-((4-(3,5-difluoro-4-((1R,2R)-2-(4-fluorophenyl)-6-hydroxy-1,2,3,4-tetrahydronaphthalen-1-yl)phenyl)piperidin-1-yl)methyl)-1-(3-fluoro-4-((6S)-2,3,6,9-tetramethyl-6H-thieno[3,2-f][1,2,4]triazolo[4,3-a][1,4]diazepin-4-yl)phenyl)piperidin-4-ol] | – | – | – | 50 to 500 nM | 500 to 2500 nM |
| Cc1sc2c(c1C)C(c1ccc(N3CCC(O)(CN4CCC(c5cc(F)c([C@@H]6c7ccc(O)cc7CC[C@@H]6c6ccc(F)cc6)c(F)c5)CC4)CC3)cc1F)=N[C@@H](C)c1nnc(C)n1-2 [III-338, 4-((4-(3,5-difluoro-4-((1S,2S)-2-(4-fluorophenyl)-6-hydroxy-1,2,3,4-tetrahydronaphthalen-1-yl)phenyl)piperidin-1-yl)methyl)-1-(3-fluoro-4-((6S)-2,3,6,9-tetramethyl-6H-thieno[3,2-f][1,2,4]triazolo[4,3-a][1,4]diazepin-4-yl)phenyl)piperidin-4-ol] | – | – | – | < 50 nM | 500 to 2500 nM |
